Test results as given in ChEMBL document CHEMBL1149916, “Natural products, small molecules, and genetics in tuberculosis drug development” (J Med Chem, 2008).
pKi: −log10 of the molar value.

How the values were obtained:
[1] = Inhibition of Mycobacterium tuberculosis acyl-CoA corboxylase corboxyltransferase domain 5
[2] = biological target: T1, Enoyl-[acyl-carrier-protein] reductase [NADH] (Mycobacterium tuberculosis, UniProt P9WGR1); test: Inhibition of Mycobacterium tuberculosis Enoyl-[acyl-carrier-protein] reductase
T1 sequence (P9WGR1 whole entry): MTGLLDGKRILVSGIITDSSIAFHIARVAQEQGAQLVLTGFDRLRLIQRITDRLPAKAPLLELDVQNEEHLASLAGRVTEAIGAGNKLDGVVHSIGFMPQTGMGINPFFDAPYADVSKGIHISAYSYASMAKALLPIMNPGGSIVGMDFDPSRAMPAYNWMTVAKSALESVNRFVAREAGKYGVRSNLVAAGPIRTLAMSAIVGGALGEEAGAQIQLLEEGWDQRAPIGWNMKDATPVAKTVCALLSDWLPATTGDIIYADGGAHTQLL

| Compound | pKi [1] | pKi [2] |
| --- | --- | --- |
| Nc1ccc(/N=N/c2ccc(-c3ccc(O)cc3)cc2)c2ccc(S(=O)(=O)O)cc12 | 4.89 | – |
| CCCCCCCCc1ccc(Oc2ccccc2)c(O)c1 | – | 9.00 |
